Results: patent publication US8309546B2, “Morpholinopurine derivatives” (Daiichi Sankyo Company, Limited, priority 2008, dated 2012)
Values joined by “and” are separate entries in the source; they are usually repeats but may differ in a detail not shown here. Identical values can stand only once.

Experiments:
PI3Kα = PI3Kα (Homo sapiens, UniProt P42336); assay: PI3K kinase activity inhibition assay; type: biochemical; conditions: Kinase-Glo Plus ATP detection, read-out: IC50 against PI3K
Outline: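 PI3Kα (50 nM solution) was reacted with 30 μM ATP and 45 μM PIP2 solutions, each in HEPES pH 7.4 with MgCl2 and DTT, for 2 h at room temperature. Remaining ATP was measured by Kinase-Glo Plus luminescence, and inhibition was derived from ATP consumed. IC50 was taken from curve fitting of the serial dilutions.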

[1] = tested on: human endometrial cancer cell strain AN3CA; assay: Cell growth inhibition test (MTT), AN3CA; type: cell-based; conditions: AN3-CA, 72 h, 3 days culture, read-out: concentration exhibiting anti-cell effect (GI50)
Outline: (§1)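 Cells were seeded per well (AN3CA 5000, IGROV1 1000, HT29 5000), dosed next day and cultured 3 days at 37° C in 5% CO2. Viable cells were read by MTT (4 h, DMSO-solubilized formazan, A540). GI50 was interpolated between the two concentrations bracketing 50% growth rate (T/C %, corrected for day-0 absorbance).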

[2] = tested on: human ovary cancer cell strain IGROV1; assay: Cell growth inhibition test (MTT), IGROV1; type: cell-based; conditions: IGROV-1, 72 h, IGROV1, 3 days culture, read-out: concentration exhibiting anti-cell effect (GI50)
Outline: as §1

[3] = tested on: human colon cancer cell strain HT29; assay: Cell growth inhibition test (MTT), HT29; type: cell-based; conditions: HT-29, 72 h, HT29, 3 days culture, read-out: concentration exhibiting anti-cell effect (GI50)
Outline: as §1

[4] = tested on: human endometrial cancer cell strain AN3CA tumor; assay: Anti-tumor effect assay using mouse subcutaneous transplantation model; type: in vivo, female nude mouse; conditions: AN3-CA, oral, tumor weight vs negative control, read-out: Anti-tumor effect (tumor growth inhibition rate)
Description: A tumor section was prepared from a human endometrial cancer cell strain AN3CA tumor mass formed in a female nude mouse as a subcutaneously transplanted tumor and then a xenograft model was prepared by transplanting the tumor section into female nude mouse. Tumor-bearing mice having an estimated tumor volume (long diameter×short diameter×short diameter/2) of 80 to 200 mm^3 were divided, so that there should be no significant difference in the mean estimated tumor volume and body weight as compared with the negative control group to perform a test. The test compound was orally administered at a predetermined dose for 8 consecutive days. On the following day of the final administration day, tumor-bearing mice were anesthetized and exsanguinated to death and a tumor mass was isolated to measure tumor weight (the compounds of Examples 1, 3, 6, 8, 11, 12, and 14). Furthermore, as a similar test, the test compound was orally administered for 5 consecutive days, animals were sacrificed on the final administration day, and tumor weight was measured (the compounds of Examples 60, 63, 75, 77, 79, 89, 92, 107, 108, 109, 110, and 127).
In all the tests, anti-tumor effect was calculated by the following formula. {1−(tumor weight in compound treatment group/tumor weight in negative control group)}×100

[5] = tested on: Akt (threonine 308) phosphorylation in AN3CA tumor; assay: Akt phosphorylation inhibition assay in xenograft; type: in vivo, female nude mouse; conditions: Mus musculus, AN3-CA, oral, 6 hr after dosing
Description: (§2) A tumor section was prepared from a human endometrial cancer cell strain AN3CA tumor mass formed in a female nude mouse as subcutaneously transplanted tumor and a xenograft model was prepared by subcutaneously transplanting the tumor to a female nude mouse. The test compound at a predetermined concentration was orally administered. After a predetermined time, the anesthetized mouse was exsanguinated to death, and a tumor mass was isolated. The tumor mass was crushed using a lysis buffer containing inhibitors of proteases and dephosphorylating enzymes (Cell Signaling Technology, Inc.) and the supernatant was separated by centrifugation to obtain a tumor extract. The protein content of the tumor extract was measured using DC Protein Assay Kit (Bio-Rad Laboratories, Inc.) and phosphorylation conditions of Akt (threonine 308) and S6 (serine 235 and 236) were analyzed by a usual technique of western blotting using tumor extracts containing the same amount of protein. The primary antibody and the secondary antibody used for detecting each molecule were rabbit anti-phospho-Akt(T308) antibody and HRP-labeled goat anti-rabbit IgG antibody or mouse anti-phospho-S6(S235/236) antibody and HRP-labeled sheep anti-mouse IgG antibody.
(§3) The signal intensity detected using an image analyzer Typhoon 9400 (GE Healthcare) was quantified, and the phosphorylation inhibition rate (%) was calculated by the following formula. Phosphorylation inhibitory activity (%) of Akt and S6 after treatment with test compound=100−100×(B/A) A: Signal intensity derived from phosphorylated protein in tumor mass isolated from mouse untreated with test compound B: Signal intensity derived from phosphorylated protein in tumor mass isolated from mouse treated with test compound

[6] = tested on: S6 (serine 235 and 236) phosphorylation in AN3CA tumor; assay: S6 phosphorylation inhibition assay in xenograft; type: in vivo, female nude mouse; conditions: Mus musculus, AN3-CA, oral, 6 hr after dosing
Description: as §2, §3

[7] = molecular target: T1, human mTOR (His-tagged mTOR (1362C)) (Homo sapiens, UniProt P42345); assay: mTOR kinase activity inhibition assay; type: biochemical; conditions: HTRF, read-out: IC50 against mTOR
T1 construct: the 1362 to 2549 amino acid portion on the C terminus side of human mTOR; His tag (N); made in house
Outline: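 Crude His-tagged mTOR (aa 1362–2549) from stable HEK293 cells, with 8 μg/ml biotinylated peptide in 50 mM HEPES pH 7.5, 20 mM MnCl2; compound diluted in 20 μM ATP solution, reaction 3 h at room temperature. Phospho-peptide detected by HTRF (anti-phospho-S6K Thr389 cryptate/streptavidin-XL665, overnight at 4°C), 665/620 nm ratio. IC50 derived from curve fit of % inhibition.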

Chain of PI3Kα (P42336 whole entry, species assumed): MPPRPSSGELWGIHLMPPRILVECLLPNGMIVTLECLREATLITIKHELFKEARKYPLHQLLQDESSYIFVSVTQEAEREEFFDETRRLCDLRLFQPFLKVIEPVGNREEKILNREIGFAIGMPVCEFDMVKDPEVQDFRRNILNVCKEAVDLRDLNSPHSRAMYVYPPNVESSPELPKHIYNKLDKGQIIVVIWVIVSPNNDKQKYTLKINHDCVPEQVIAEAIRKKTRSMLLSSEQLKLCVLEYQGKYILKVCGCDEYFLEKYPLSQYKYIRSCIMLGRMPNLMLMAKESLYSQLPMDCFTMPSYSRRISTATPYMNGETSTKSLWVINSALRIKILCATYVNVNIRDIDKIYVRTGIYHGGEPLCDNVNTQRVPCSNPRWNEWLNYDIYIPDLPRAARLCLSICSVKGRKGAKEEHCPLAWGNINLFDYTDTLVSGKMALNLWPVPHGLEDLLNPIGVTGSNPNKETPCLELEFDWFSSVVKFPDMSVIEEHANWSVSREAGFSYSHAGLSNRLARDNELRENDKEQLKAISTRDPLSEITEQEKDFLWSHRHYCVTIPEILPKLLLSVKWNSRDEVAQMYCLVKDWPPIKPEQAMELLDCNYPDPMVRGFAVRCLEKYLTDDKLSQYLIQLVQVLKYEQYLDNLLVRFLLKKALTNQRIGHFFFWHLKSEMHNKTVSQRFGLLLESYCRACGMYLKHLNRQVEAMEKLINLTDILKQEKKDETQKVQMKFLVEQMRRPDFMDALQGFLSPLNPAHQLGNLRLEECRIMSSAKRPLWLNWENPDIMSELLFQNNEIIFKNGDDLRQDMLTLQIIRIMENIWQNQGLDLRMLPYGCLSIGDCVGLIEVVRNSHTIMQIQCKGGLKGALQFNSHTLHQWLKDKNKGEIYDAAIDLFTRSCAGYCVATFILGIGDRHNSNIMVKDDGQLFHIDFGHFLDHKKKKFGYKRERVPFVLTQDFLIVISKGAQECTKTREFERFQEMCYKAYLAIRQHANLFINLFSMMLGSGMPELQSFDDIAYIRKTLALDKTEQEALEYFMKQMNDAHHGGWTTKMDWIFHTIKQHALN
Chain of PI3Kα (P27986 whole entry partner, species assumed): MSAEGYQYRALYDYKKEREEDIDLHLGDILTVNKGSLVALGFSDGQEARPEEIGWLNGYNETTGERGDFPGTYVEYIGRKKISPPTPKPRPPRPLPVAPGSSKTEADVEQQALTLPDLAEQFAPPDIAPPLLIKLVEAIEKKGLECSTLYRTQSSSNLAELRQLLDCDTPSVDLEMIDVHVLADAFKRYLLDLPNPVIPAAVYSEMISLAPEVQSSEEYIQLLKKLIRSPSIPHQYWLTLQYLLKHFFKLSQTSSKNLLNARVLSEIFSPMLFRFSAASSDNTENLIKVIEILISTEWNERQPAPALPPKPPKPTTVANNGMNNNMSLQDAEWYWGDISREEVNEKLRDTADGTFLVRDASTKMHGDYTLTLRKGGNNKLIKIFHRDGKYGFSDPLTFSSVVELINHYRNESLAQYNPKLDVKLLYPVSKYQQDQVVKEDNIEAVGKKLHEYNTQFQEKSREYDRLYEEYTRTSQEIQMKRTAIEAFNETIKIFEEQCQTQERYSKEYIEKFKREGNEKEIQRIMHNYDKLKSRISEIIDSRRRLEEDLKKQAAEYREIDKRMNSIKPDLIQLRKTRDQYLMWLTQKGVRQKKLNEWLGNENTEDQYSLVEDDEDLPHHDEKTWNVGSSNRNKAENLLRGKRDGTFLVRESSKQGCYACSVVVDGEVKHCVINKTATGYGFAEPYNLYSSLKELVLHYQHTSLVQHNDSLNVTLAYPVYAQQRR
T1 sequence (P42345 1362-2549): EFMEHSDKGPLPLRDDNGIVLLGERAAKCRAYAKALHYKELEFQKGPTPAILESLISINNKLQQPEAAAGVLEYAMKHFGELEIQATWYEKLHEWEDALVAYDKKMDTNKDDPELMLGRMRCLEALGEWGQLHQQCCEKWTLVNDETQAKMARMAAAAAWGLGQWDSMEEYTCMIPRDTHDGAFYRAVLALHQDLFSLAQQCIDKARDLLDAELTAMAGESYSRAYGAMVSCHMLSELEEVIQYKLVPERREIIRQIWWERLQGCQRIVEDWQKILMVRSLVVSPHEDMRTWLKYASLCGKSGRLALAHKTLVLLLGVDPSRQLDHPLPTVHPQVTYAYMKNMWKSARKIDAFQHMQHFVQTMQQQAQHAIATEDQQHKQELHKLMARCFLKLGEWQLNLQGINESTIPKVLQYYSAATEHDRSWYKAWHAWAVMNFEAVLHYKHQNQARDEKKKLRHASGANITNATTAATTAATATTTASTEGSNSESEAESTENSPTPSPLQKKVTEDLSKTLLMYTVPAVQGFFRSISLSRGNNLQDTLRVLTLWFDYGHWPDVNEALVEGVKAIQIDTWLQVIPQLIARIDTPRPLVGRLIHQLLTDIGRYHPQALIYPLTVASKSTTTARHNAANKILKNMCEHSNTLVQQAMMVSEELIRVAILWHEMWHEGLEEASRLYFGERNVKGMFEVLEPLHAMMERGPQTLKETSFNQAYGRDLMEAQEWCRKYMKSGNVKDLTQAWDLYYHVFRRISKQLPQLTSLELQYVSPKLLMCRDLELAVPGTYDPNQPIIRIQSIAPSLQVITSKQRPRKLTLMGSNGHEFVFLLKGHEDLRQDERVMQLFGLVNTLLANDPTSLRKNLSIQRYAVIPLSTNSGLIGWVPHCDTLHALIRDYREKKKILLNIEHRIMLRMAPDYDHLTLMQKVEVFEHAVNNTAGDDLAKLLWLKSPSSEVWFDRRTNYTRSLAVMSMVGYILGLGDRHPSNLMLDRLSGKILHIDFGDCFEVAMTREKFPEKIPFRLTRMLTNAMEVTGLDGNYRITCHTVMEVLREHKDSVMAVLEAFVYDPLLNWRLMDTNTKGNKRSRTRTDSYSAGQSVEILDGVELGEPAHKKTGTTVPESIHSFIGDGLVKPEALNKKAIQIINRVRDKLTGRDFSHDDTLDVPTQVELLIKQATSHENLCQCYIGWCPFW

IC50 (PI3Kα)	GI50 [1] [nM]	GI50 [2] [nM]	GI50 [3] [nM]	IC50 [7] [nM]	SMILES	inhibition in vivo at 10 mg/kg/day ([4]; 10 mg/kg/day, 8 or 5 consecutive days depending on compound) [%]	inhibition in vivo at 20 mg/kg/day ([4]; 20 mg/kg/day, consecutive days) [%]	inhibition at 10 mg/kg [5] [%]	inhibition at 10 mg/kg [6] [%]
10 to 20 nM and 20 to 50 nM	≤ 5000	≤ 5000	≤ 5000	–	C[C@@H]1CN(c2nc3c(N4CCOCC4)nc(-c4cnc(N)nc4)nc3n2CC2CC2)C[C@H](C)N1 [Example 12, 5-{9-(Cyclopropylmethyl)-8-(cis-3,5-dimethylpiperazin-1-yl)-6-morpholin-4-yl-9H-purin-2-yl}pyrimidin-2-amine]	61	71	–	–
< 10 nM	≤ 5000	≤ 5000	≤ 5000	–	CC(C)Cn1c(N2CCN(C(=O)C[C@H](C)O)CC2)nc2c(N3CCOC[C@@H]3C)nc(-c3cnc(N)nc3)nc21 [Example 133, (2S)-4-(4-[2-(2-Aminopyrimidin-5-yl)-9-isobutyl-6-[(3S)-3-methylmorpholin-4-yl]-9H-purin-8-yl]piperazin-1-yl)-4-oxobutan-2-ol]	–	–	> 60	> 90
< 10 nM	≤ 5000	≤ 5000	≤ 5000	30 to 100	NCC(=O)N1CCN(c2nc3c(N4CCOCC4)nc(-c4cnc(N)nc4)nc3n2CC2CC2)CC1 [Example 42, 5-{8-[4-(Aminoacetyl)piperazin-1-yl]-9-(cyclopropylmethyl)-6-morpholin-4-yl-9H-purin-2-yl}pyrimidin-2-amine]	–	–	–	–
20 to 50 nM	≤ 5000	≤ 5000	≤ 5000	100 to 500	C[C@@H]1CN(c2nc3c(N4CCOCC4)nc(-c4cnc(N)nc4)nc3n2CC2CCOC2)C[C@H](C)N1 (stereo partly drawn) [Example 17, 5-[8-(cis-3,5-Dimethylpiperazin-1-yl)-6-morpholin-4-yl-9-(tetrahydrofuran-3-ylmethyl)-9H-purin-2-yl]pyrimidin-2-amine]	–	–	–	–
20 to 50 nM	≤ 5000	≤ 5000	≤ 5000	≥ 500	Cc1nc(N)ncc1-c1nc(N2CCOCC2)c2nc(N3CCC(N(C)C)C3)n(CC3CC3)c2n1 (centres unmarked) [Example 33, 5-{9-(Cyclopropylmethyl)-8-[3-(dimethylamino)pyrrolidin-1-yl]-6-morpholin-4-yl-9H-purin-2-yl}-4-methylpyrimidin-2-amine]	–	–	–	–
10 to 20 nM	≤ 5000	≤ 5000	≤ 5000	100 to 500	Nc1ncc(-c2nc(N3CCOCC3)c3nc(NCCN4CCOCC4)n(CC4CC4)c3n2)cn1 [Example 29, 2-(2-Aminopyrimidin-5-yl)-9-(cyclopropylmethyl)-6-morpholin-4-yl-N-(2-morpholin-4-ylethyl)-9H-purin-8-amine]	–	–	–	–
